Columns and labels:
[1] = system: isolated rat mesenteric arteries; test: Relaxation of isolated rat mesenteric arteries (myograph)
From the text: The animals were killed humanely via CO2 inhalation (95% CO2, 5% O2) followed by cervical dislocation and exsanguination. The required tissues were dissected and placed in ice-cold oxygenated Krebs' solution (composition in mM: NaCl 119, KCl 4.7, MgSO4 1.17, NaHCO3 25, KH2PO4 1.18, CaCl2 2.5, glucose 5.5, EDTA 0.026, pH 7.4). The collected arteries were carefully freed of fat and connective tissue and cut into 2 mm rings.
The segments were then mounted in a small vessel myograph for the measurement of changes in isometric tension. Two 40 μm stainless steel wires were inserted through the lumen of the segment, one attached to an isometric force transducer and the other to a support driven by a micrometer. The vessels were maintained in Krebs' solution at 37° C. in 7 ml myograph chambers and were continuously bubbled with carbogen (95% O2, 5% CO2). Arteries were allowed to equilibrate for a 30 min period under zero force after which their internal diameter was normalised to an equivalent transmural pressure of 100 mmHg. Changes in isometric tension were reordered using a Myograph Interface Model 610 M version 2.2 (AD Instruments, Pty Ltd) and a chart recorder (Yokogawa, Japan), or using a MacLab® (MacLab® data-acquisition system, AD Instruments Pty Ltd.), interfaced with a Macintosh Computer. Following the 30 min equilibration period at optimal resting tension, the vessels were contracted maximally using a potassium depolarising KPSS solution (composition in mM: KCl 123, MgSO4 1.17, KH2PO4 2.37, CaCl2 2.5, glucose, 5.5 and EDTA 0.026). After the maximum contraction reached a plateau, the vessels were washed thoroughly using Krebs' solution and the tension allowed to return to the baseline. The vessels were then pre-contracted to ≈50% maximum contraction using titrated concentration of the thromboxane A2 mimetic U46619 (0.1-100 nM) and a titrated concentration of the al agonist cirazoline (1-100 nM). Subsequently, cumulative (0.5 log unit) concentration response curve to BAY 58-2667 (1 pM-0.1 μM) were constructed in the presence and absence of 100nM BAY 41-2272 (100 nM). All treatments used in our study including the pre-incubation with 10 μM ODQ for 30 min were added before the 50% pre-contraction with cirazoline and U46619 and only one concentration response curve to any vasodilator was constructed in each segment of the blood vessel. At the completion of each concentration response curve, maximal relaxation was achieved by adding nifedipine 10 μM.
Results are expressed as mean±s.e.m, with n representing the number of samples used from separate subjects. Statistical significance was accepted at the P<0.05 level. Relaxation responses to BAY58-2667 were expressed as a percentage reversal of the level of pre-contraction to U46619, with the response to nifedipine 10 μM defined as 100% relaxation. The individual response curves obtained for each vasodilator were fitted using non-linear regressions (Graphpad Prism®, version 5). In-vitro experiments have been performed with n=3 and n=1. Maximal relaxation values (%) at specific concentrations of the compounds were compared. For multiple comparisons, student's t-test or one-way analysis of variance (ANOVA) was followed by Bonferroni's test. • The results of our experiments are represented by the following non-limiting examples.

[2] = molecular target: T1, purified human sGC treated with ODQ (oxidized heme) (Homo sapiens, UniProt Q02153); test: sGC activity of purified human sGC treated with ODQ; assay type: biochemical; conditions: 10 μM ODQ, 0.3 μM BAY 58-2667 ± 10 μM BAY 41-2272 (FIG. 7A); ODQ concentration series with 30 μM Bay 41-2272 (FIG. 7B)
T1 construct: purchased EnzoLifeScience, Lörrach, Germany
T1 sequence (Q02153 1-619): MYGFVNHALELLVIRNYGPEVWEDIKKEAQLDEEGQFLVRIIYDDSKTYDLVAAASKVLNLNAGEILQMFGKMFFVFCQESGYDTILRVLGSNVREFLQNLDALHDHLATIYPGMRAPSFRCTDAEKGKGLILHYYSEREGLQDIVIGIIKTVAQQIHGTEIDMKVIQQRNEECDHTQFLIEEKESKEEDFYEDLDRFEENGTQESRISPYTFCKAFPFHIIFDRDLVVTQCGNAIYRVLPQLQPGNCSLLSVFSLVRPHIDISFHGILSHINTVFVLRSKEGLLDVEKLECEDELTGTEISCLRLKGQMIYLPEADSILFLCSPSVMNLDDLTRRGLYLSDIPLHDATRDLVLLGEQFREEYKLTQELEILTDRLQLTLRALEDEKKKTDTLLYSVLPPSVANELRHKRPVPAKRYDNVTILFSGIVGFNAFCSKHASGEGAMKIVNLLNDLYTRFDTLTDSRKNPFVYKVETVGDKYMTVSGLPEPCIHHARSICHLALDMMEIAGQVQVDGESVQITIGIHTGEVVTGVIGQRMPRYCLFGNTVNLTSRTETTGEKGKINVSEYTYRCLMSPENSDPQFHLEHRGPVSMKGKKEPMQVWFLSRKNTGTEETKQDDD
T1 sequence (Q02108 1-690 partner): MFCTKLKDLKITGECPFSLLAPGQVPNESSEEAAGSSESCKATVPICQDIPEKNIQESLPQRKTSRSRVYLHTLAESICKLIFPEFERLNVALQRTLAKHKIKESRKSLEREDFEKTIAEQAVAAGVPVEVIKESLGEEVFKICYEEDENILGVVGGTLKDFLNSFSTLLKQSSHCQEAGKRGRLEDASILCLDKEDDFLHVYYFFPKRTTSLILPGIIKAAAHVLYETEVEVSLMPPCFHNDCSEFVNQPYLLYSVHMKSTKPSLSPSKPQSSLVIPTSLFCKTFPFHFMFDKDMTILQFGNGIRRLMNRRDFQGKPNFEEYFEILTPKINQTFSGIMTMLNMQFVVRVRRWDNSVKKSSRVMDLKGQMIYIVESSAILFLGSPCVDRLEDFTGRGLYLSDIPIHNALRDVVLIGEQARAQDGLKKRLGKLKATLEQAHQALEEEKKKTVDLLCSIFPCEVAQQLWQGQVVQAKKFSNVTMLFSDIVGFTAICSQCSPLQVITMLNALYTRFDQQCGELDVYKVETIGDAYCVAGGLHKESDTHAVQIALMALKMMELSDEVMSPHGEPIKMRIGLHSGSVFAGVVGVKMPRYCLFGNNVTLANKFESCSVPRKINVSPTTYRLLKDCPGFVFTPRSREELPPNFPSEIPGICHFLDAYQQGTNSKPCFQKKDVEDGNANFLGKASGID

**Q.** `Nc1nc(-c2nn(Cc3ccccc3F)c3ncccc23)ncc1C1CC1` [BAY 41-2272, 5-cyclopropyl-2-[1-(2-fluoro-benzyl)-1H-pyrazolo[3,4-b]pyridin-3-yl]-pyrimidin-4-ylamine] was tested. Which “relaxation, compound alone” value ([1]; 0.1 μM BAY 41-2272 alone, pre-contraction with U46619) did it give?
**A.** The value was “no relaxation”.

**Q.** And the “effect on Bay 58-2667 relaxation” value ([1]; nano-molar range)?
**A.** The value was “augmented”.

**Q.** What about the “effect on DEA/NO (NO donor) relaxation” value ([1]; nano-molar range) of the same compound?
**A.** Its value is “augmented”.

**Q.** What about the “sGC activity of sGC with fully oxidized heme on addition of sGC stimulator” value [2] of the same compound?
**A.** Its value is “still activatable by potentiation”.

— US20230087609A1, “USE OF A SOLUBLE GUANYLATE CYCLASE (sGC) STIMULATOR OR OF A COMBINATION OF A sGC STIMULATOR AND AN sGC ACTIVATOR FOR CONDITIONS WHEREIN THE HEME GROUP OF sGC IS OXIDIZED OR WHEREIN sGC IS DEFICIENT IN HEME” (Universiteit Maastricht, priority 2020, published 2023)
